Results: publication PMC8486872, “A rational blueprint for the design of chemically-controlled protein switches” (Nature Communications, 2021)
Values joined by “and” are separate entries in the source; they are usually repeats but may differ in a detail not shown here. Equal values may be shown once. Read-outs that look alike come from different tables or passages of the source.

System: SEAP expression in HEK293T cells
Experiment: MISO designer cells (CDH-1 + CDH-3 dual switches)
Type: cell-based
Design: SEAP / Bottom (best-fit value) / Top (best-fit value) / Span (best-fit value): unit not given here
Details: for logIC50 (best-fit value): drug in nM; for SEAP, Drug-3 turn OFF CDH-3-TF (with 1 µM Drug-1): Fig S13f; for SEAP, Drug-3 turn OFF CDH-3-GEMS (+1 µM Drug-3): Fig S13g, representative data; for IC50: Homo sapiens, HEK-293T, read-out: IC50 (best-fit value)
Excerpt: Fig. 5 Orthogonal chemical switches enable implementation of multi-input multi-output control modes in mammalian cells. a Scheme of multi-inputs multi-outputs (MIMO) designer cells where two drugs control two different outputs. b, c Cells were co-transfected with AIR-1/2-GEMS and CDH-3-TF regulate SEAP and Luciferase expression, respectively. […] AIR-1/2-GEMS coupled with SEAP expression circuits were co-transfected with CDH-1/2-TF circuits which control the Luciferase production. Respective drug concentrations ranged from 0.001 nM to 1 µM. […]
We then engineered MISO cells (Fig. 5d) with CDH-1-TF and CDH-3-TF dual switches (Fig. 5e) that encode OFF behaviors controlled by Drug-1 and Drug-3. […] This output behavior is distinct from the typical SISO systems which only show two persistent states (high, low) (Fig. 2c, f). […] This type of output in biological systems could be utilized to produce graded levels of responses that are robust to minor oscillations in drug concentrations, and could be used to dissect fundamental biological processes but also to provide persistent response levels in translational applications.
1-TF and CDH-3-TF circuits. Drug-1 concentrations ranged from 0.001 nM to 1 µM (left) and 1 µM Drug-1 with serial diluted Drug-3 from 0.001 nM to 1 µM (right). g) Quantification of SEAP activity controlled […]
by CDH-1-GEMS and CDH-3-GEMS circuits. […]
Luciferase production (l). b-k) Each data point represents the mean of n = 3 biological replicates, and the dose-dependent curve were fitted using four-parameter nonlinear regression.

[1] = Fig5e SEAP, CDH-3-TF, four-parameter fit
[2] = Fig5f SEAP, CDH-3-GEMS, three-parameter fit

For `COc1cc2c(cc1OC(C)C)[C@H](c1ccc(Cl)cc1)N(c1ccc(N(C)C[C@H]3CC[C@H](N4CCN(C)C(=O)C4)CC3)cc1)C(=O)C2` [Drug-3, NVP-CGM097], the “Bottom (best-fit value)” value [1] was 17.47, the “HillSlope (best-fit value)” value [1] was -0.6148 and the “Span (best-fit value)” value [1] was 17.06. The “Top (best-fit value)” value [1] was 34.53, the “logIC50 (best-fit value)” value [1] was 1.333 and the SEAP (Fig5e, turn OFF CDH-3-TF, 0.001 nM) was 33.8408 and 34.0469 and 34.3351. For the same molecule, the SEAP (Fig5e, turn OFF CDH-3-TF, 0.01 nM) was 29.7183 and 31.0605 and 34.2655, the SEAP (Fig5e, turn OFF CDH-3-TF, 0.1 nM) was 37.5532 and 35.9265 and 39.0056 and the SEAP (Fig5e, turn OFF CDH-3-TF, 1 nM) was 35.3902 and 29.1113 and 33.3839. The SEAP (Fig5e, turn OFF CDH-3-TF, 10 nM) was 29.3646 and 23.7323 and 25.8725, the SEAP (Fig5e, turn OFF CDH-3-TF, 100 nM) was 25.079 and 20.2253 and 26.0755 and the SEAP (Fig5e, turn OFF CDH-3-TF, 1000 nM) was 15.9296 and 18.8913 and 19.9566. For the same molecule, the “Bottom (best-fit value)” value [2] was 53.47, the “Span (best-fit value)” value [2] was 48.26 and the “Top (best-fit value)” value [2] was 101.7. For the same molecule, the “logIC50 (best-fit value)” value [2] was 0.4646, the SEAP (Fig5f, turn OFF CDH-3-GEMS, 0.001 nM) was 113.362 and 89.612 and 99.5052 and the SEAP (Fig5f, turn OFF CDH-3-GEMS, 0.01 nM) was 121.028 and 91.7365 and 92.479. The SEAP (Fig5f, turn OFF CDH-3-GEMS, 0.1 nM) was 104.447 and 97.6051 and 99.9447, the SEAP (Fig5f, turn OFF CDH-3-GEMS, 1 nM) was 100.353 and 82.6179 and 86.7829 and the SEAP (Fig5f, turn OFF CDH-3-GEMS, 10 nM) was 58.8118 and 64.1853 and 65.9179. The SEAP (Fig5f, turn OFF CDH-3-GEMS, 100 nM) was 45.2413 and 57.2529 and 77.3068, the SEAP (Fig5f, turn OFF CDH-3-GEMS, 1000 nM) was 32.455 and 54.8353 and 61.4484 and the “SEAP, Drug-3 turn OFF CDH-3-TF (with 1 µM Drug-1)” value (from here on “SEAP, Drug-3 turn OFF CDH-3-TF”) (Drug-3 0.001 nM with 1 µM Drug-1) was 20.0495 U/L and 20.062 U/L and 15.0342 U/L. For the same molecule, the “SEAP, Drug-3 turn OFF CDH-3-TF” value (Drug-3 0.01 nM with 1 µM Drug-1) was 17.0461 U/L and 19.1502 U/L and 14.3967 U/L, the “SEAP, Drug-3 turn OFF CDH-3-TF” value (Drug-3 0.1 nM with 1 µM Drug-1) was 19.7901 U/L and 16.3361 U/L and 16.2198 U/L and the “SEAP, Drug-3 turn OFF CDH-3-TF” value (Drug-3 1 nM with 1 µM Drug-1) was 20.2218 U/L and 16.2578 U/L and 17.1111 U/L. The “SEAP, Drug-3 turn OFF CDH-3-TF” value (Drug-3 10 nM with 1 µM Drug-1) was 16.1201 U/L and 11.9157 U/L and 15.1062 U/L, the “SEAP, Drug-3 turn OFF CDH-3-TF” value (Drug-3 100 nM with 1 µM Drug-1) was 12.136 U/L and 6.982 U/L and 12.7567 U/L and the “SEAP, Drug-3 turn OFF CDH-3-TF” value (Drug-3 1000 nM with 1 µM Drug-1) was 12.5352 U/L and 7.0164 U/L and 6.482 U/L. The “SEAP, Drug-3 turn OFF CDH-3-GEMS (+1 µM Drug-3)” value (“SEAP, Drug-3 turn OFF CDH-3-GEMS” for short) (Drug-3 0.001 nM + 1 µM Drug-3) was 32.0934 U/L and 36.9962 U/L and 29.2725 U/L, the “SEAP, Drug-3 turn OFF CDH-3-GEMS” value (Drug-3 0.01 nM + 1 µM Drug-3) was 28.8246 U/L and 27.8451 U/L and 33.3513 U/L and the “SEAP, Drug-3 turn OFF CDH-3-GEMS” value (Drug-3 0.1 nM + 1 µM Drug-3) was 25.7325 U/L and 31.532 U/L and 32.3299 U/L. The “SEAP, Drug-3 turn OFF CDH-3-GEMS” value (Drug-3 1 nM + 1 µM Drug-3) was 22.1832 U/L and 28.8305 U/L and 36.3315 U/L, the “SEAP, Drug-3 turn OFF CDH-3-GEMS” value (Drug-3 10 nM + 1 µM Drug-3) was 20.2059 U/L and 25.0579 U/L and 21.1125 U/L and the “SEAP, Drug-3 turn OFF CDH-3-GEMS” value (Drug-3 100 nM + 1 µM Drug-3) was 19.7003 U/L and 17.1154 U/L and 24.8794 U/L. For the same molecule, the “SEAP, Drug-3 turn OFF CDH-3-GEMS” value (Drug-3 1000 nM + 1 µM Drug-3) was 16.9947 U/L and 17.5781 U/L and 20.7969 U/L, the IC50 (Fig5e SEAP, turn OFF CDH-3-TF, four-parameter fit) was 21.5 nM and the IC50 (Fig5f SEAP, turn OFF CDH-3-GEMS, three-parameter fit) was 2.92 nM.
